Measurements: patent publication US20230129364A1, “PYRROLIDINE DERIVATIVE, AND PHARMACEUTICAL COMPOSITION FOR PREVENTING OR TREATING BETA-AMYLOID OR TAU PROTEIN-ASSOCIATED DISEASES CONTAINING SAME” (YONSEI UNIVERSITY, UNIVERSITY - INDUSTRY FOUNDATION (UIF), priority 2019, published 2023)

Assays:
Type in all cases: biochemical
[1] = molecular target: T1, aggregated tau protein (wild-type K18) (Homo sapiens, UniProt P10636); assay: Tau protein aggregate degradation test (thioflavin T assay); conditions: pre-aggregated tau, further 5 days at 37° C., ThT fluorescence vs control = 100%
T1 construct: Tau protein (wild-type K18)
Method: Tau protein (wild-type K18) was dissolved in phosphate-buffered saline (PBS, pH 7.4) at a concentration of 1 mg/mL to prepare a tau protein solution. 0.1 mg/mL of heparin and 100 μM dithiothreitol (DTT) were added to 1 mg/mL of the tau protein solution, followed by incubation at 37° C. for 5 days to induce tau protein aggregation. The aggregated tau protein was mixed with each test compound in an amount of 50 or 500 μM such that the final concentration reached 0.5 mg/mL, followed by further incubation at 37° C. for 5 days to induce reaction.
The degradation effect of each compound on the tau aggregates was measured by thioflavin T (ThT) assay (see Example 2). More specifically, 25 μL of the reaction solution was charged in each well of a 96-well plate for fluorescence analysis and 75 μL of the prepared thioflavin-T solution was charged in each well. The reaction was allowed to proceed at room temperature in a dark laboratory for 5 minutes and then fluorescence values were measured at an excitation wavelength of 450 nm and an emission wavelength of 485 nm using a multi-mode microplate reader.
The ratio of the fluorescence value measured in the group obtained by treating with each test compound to 100% of the fluorescence value of the group (control group) obtained by treating only with tau proteins and inducing aggregation for 5 days is set forth in Table 6 below: […]

[2] = molecular target: T2, aggregated beta-amyloid; human Aβ 1-42 (UniProtKB-P05067, a.a. 672-713) (Homo sapiens, UniProt P05067); assay: Beta-amyloid aggregate degradation test (thioflavin T assay); conditions: pre-aggregated Aβ, further 3 days at 37° C., ThT fluorescence vs control = 100%
T2 construct: UniProtKB-P05067, a.a; 672-713
Method: Aβ (beta-amyloid; human A3 1-42 monomer (UniProtKB-P05067, a.a. 672-713)) was dissolved at a concentration of 10 mM in dimethyl sulfoxide (DMSO), and the resulting solution was diluted to 250 μM using distilled water, and then incubated at 37° C. for 3 days to induce aggregation. The aggregated beta-amyloid was added with each test compound in an amount of 50 or 500 μM such that the final concentration reached 25 μM, and was further cultured at 37° C. for 3 days to induce reaction. The aggregate degradation effect of each test compound was measured by thioflavin T (ThT) assay (see Example 2). Specifically, 25 μL of the reaction solution was charged in each well of a 96-well plate for fluorescence analysis and 75 μL of the prepared thioflavin-T solution was charged in each well. The reaction was allowed to proceed at room temperature in a dark laboratory for 5 minutes and then fluorescence values were measured at an excitation wavelength of 450 nm and an emission wavelength of 485 nm using a multi-mode microplate reader. The ratio of the fluorescence value measured in the group obtained by treating with each test compound to 100% of the fluorescence value of the group (control group) obtained by treating only with beta-amyloids and inducing aggregation for 3 days is set forth in Table 4 below: […]

[3] = molecular target: T3, Tau protein (wild-type K18) (Homo sapiens, UniProt P10636); assay: Tau protein aggregation inhibition test (thioflavin T assay); conditions: heparin/DTT-induced aggregation, 37° C. 5 days, ThT fluorescence vs tau-only control = 100%
T3 construct: Tau protein (wild-type K18)
Method: Tau protein (wild-type K18) was dissolved in phosphate-buffered saline (PBS, pH 7.4) at a concentration of 1 mg/mL to prepare a tau protein solution. In order to induce aggregation of tau proteins, 0.1 mg/mL of heparin and 100 μM dithiothreitol (DTT) were added to 1 mg/mL of the tau protein solution, followed by incubation at 37° C. for 5 days. At this time, the result was mixed with each test compound (50, 500 μM) such that the final concentration reached 0.5 mg/mL, followed by further incubation.
The inhibitory effect of each compound against tau aggregation was measured based on the intensity of fluorescence by thioflavin T (ThT) assay (see Example 2). More specifically, 25 μL of the reaction solution was charged in each well of a 96-well plate for fluorescence analysis, and 75 μL of the prepared thioflavin-T solution was then charged in each well. The reaction was allowed to proceed at room temperature in a dark laboratory for 5 minutes, and then fluorescence values were measured at an excitation wavelength of 450 nm and an emission wavelength of 485 nm using a multi-mode microplate reader.
The ratio of the fluorescence value measured in the group obtained by treating with each test compound to 100% of the fluorescence value of the group (control group) obtained by treating only with tau proteins and inducing aggregation for 5 days is set forth in Table 5 below: […]

T1 sequence (P10636 561-685 limits assumed): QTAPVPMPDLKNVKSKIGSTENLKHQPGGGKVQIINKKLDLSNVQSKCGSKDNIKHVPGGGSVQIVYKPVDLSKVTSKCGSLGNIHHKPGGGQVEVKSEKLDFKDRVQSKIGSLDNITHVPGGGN
T3 sequence (P10636 561-685 limits assumed): as above
T2 sequence (P05067 672-713): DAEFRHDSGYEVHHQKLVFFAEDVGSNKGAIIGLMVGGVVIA

Compound	ThT fluorescence remaining (% of control) ([1]; 50 uM test compound)	ThT fluorescence remaining (% of control) ([1]; 500 uM test compound)	Beta-amyloid aggregate degradation activity (% of control) ([2]; 50 uM test compound)	Beta-amyloid aggregate degradation activity (% of control) ([2]; 500 uM test compound)	Tau aggregation remaining (ThT fluorescence, % of tau-only control) ([3]; 50 uM test compound)	Tau aggregation remaining (ThT fluorescence, % of tau-only control) ([3]; 500 uM test compound)
CCN1C(=O)/C(=C/c2c[nH]c3ccccc23)NC1=S [DN204811, (Z)-5-((1H-indol-3-yl)methylene)-3-ethyl-2-thioxoimidazolidin-4-one]	50.44 % of control	31.04 % of control	74.64 % of control	28.97 % of control	43.22 % of control	40.21 % of control
O=C1NC(=S)S/C1=C\c1ccsc1 [DN204299, (Z)-5-(thiophen-3-ylmethylene)-2-thioxothiazolidin-4-one]	72.21 % of control	45.09 % of control	–	80.07 % of control	60.521 % of control	33.932 % of control
CN1C(=O)N/C(=C\c2c[nH]c3cccnc23)C1=O [DN204673, (Z)-5-((1H-pyrrolo[3,2-b]pyridin-3-yl)methylene)-3-methylimidazolidine-2,4-dione]	–	–	86.89 % of control	30.52 % of control	–	55.87 % of control
O=C1NC(=S)S/C1=C\c1c[nH]c2ccncc12 [DN204807, (Z)-5-((1H-pyrrolo[3,2-c]pyridin-3-yl)methylene)-2-thioxothiazolidin-4-one]	–	–	–	53.56 % of control	93.56 % of control	74.24 % of control
CCN1C(=O)/C(=C/c2ccoc2)NC1=S [DN204814, (Z)-3-ethyl-5-(furan-3-ylmethylene)-2-thioxoimidazolidin-4-one]	30.07 % of control	−22.72 % of control	58.02 % of control	−40.60 % of control	–	28.47 % of control
O=C1NC(=S)S/C1=C\c1cc[nH]c1 [DN204297, (Z)-5-((1H-pyrrol-3-yl)methylene)-2-thioxothiazolidin-4-one]	52.16 % of control	17.97 % of control	86.80 % of control	28.19 % of control	48.721 % of control	16.233 % of control
O=C1NC(=S)S/C1=C\c1ccoc1 [DN204298, (Z)-5-(furan-3-ylmethylene)-2-thioxothiazolidin-4-one]	61.36 % of control	29.73 % of control	59.37 % of control	7.79 % of control	71.163 % of control	33.817 % of control
O=C1NC(=O)/C(=C/c2c[nH]c3ncccc23)S1 [DN204286, (Z)-5-((1H-pyrrolo[2,3-b]pyridin-3-yl)methylene)thiazolidine-2,4-dione]	–	–	–	94.23 % of control	56.04 % of control	82.71 % of control
O=C1NC(=O)C(Cc2cnc3ccccc3c2)S1 (centres unmarked) [DN204294, 5-(quinolin-3-ylmethyl)thiazolidine-2,4-dione]	–	–	88.64 % of control	74.80 % of control	85.91 % of control	–

The next lines start with the values.

ThT fluorescence remaining (% of control) ([1]; 50 uM test compound)	ThT fluorescence remaining (% of control) ([1]; 500 uM test compound)	Beta-amyloid aggregate degradation activity (% of control) ([2]; 50 uM test compound)	Beta-amyloid aggregate degradation activity (% of control) ([2]; 500 uM test compound)	Tau aggregation remaining (ThT fluorescence, % of tau-only control) ([3]; 50 uM test compound)	Tau aggregation remaining (ThT fluorescence, % of tau-only control) ([3]; 500 uM test compound)	Compound
27.50 % of control	10.84 % of control	51.31 % of control	35.73 % of control	69.83 % of control	33.02 % of control	CCN1C(=O)/C(=C/c2c[nH]c3ccncc23)SC1=S [DN205780, (Z)-5-((1H-pyrrolo[3,2-c]pyridin-3-yl)methylene)-3-ethyl-2-thioxothiazolidin-4-one]
28.74 % of control	23.79 % of control	85.76 % of control	55.35 % of control	74.46 % of control	52.99 % of control	CCN1C(=O)/C(=C/c2c[nH]c3cccnc23)SC1=S [DN205781, (Z)-5-((1H-pyrrolo[3,2-b]pyridin-3-yl)methylene)-3-ethyl-2-thioxothiazolidin-4-one]
49.41 % of control	30.65 % of control	93.80 % of control	44.61 % of control	40.038 % of control	25.883 % of control	O=C1NC(=S)S/C1=C\c1c[nH]c2ncccc12 [DN205355, (Z)-5-((1H-pyrrolo[2,3-b]pyridin-3-yl)methylene)-2-thioxothiazolidin-4-one]
40.39 % of control	33.92 % of control	–	92.41 % of control	81.42 % of control	56.3 % of control	CCN1C(=O)/C(=C/c2c[nH]c3ncccc23)NC1=S [DN204816, (Z)-5-((1H-pyrrolo[2,3-b]pyridin-3-yl)methylene)-3-ethyl-2-thioxoimidazolidin-4-one]
66.25 % of control	80.59 % of control	–	90.19 % of control	61.551 % of control	66.948 % of control	CCN1C(=O)C(Cc2ccc3occc3c2)NC1=S (centres unmarked) [DN205353, 5-(benzofnran-5-ylmethyl)-3-ethyl-2-thioxoimidazolidin-4-one]
